# Target: T1, Human LPA1 (Homo sapiens, UniProt Q92633)
# T1 construct: the full-length cDNA for human LPA1 was obtained by PCR of the reverse transcription reaction; expressed in transfected cells
# Experiment: LPA1 calcium flux assay
# Assay type: cell-based
# Details: CHO cells expressing human LPA1, stimulated with 10 nM LPA; read-out: LPA1 Ca^2+ flux
# Procedure: A 1.1 kb cDNA encoding the human LPA1 receptor was cloned from human lung. Human lung RNA (Clontech Laboratories, Inc. USA) was reverse transcribed using the RETROSCRIPT® kit (Ambion, Inc.) and the full-length cDNA for human LPA1 was obtained by PCR of the reverse transcription reaction. The nucleotide sequence of the cloned human LPA1 was determined by sequencing and confirmed to be identical to the published human LPA1 sequence (An et al., Biochem. Biophys. Res. Commun. 231:619 (1997). The cDNA was cloned into the pcDNA5/FRT expression plasmid and transfected in CHO cells using Lipofectamine 2000 (Invitrogen Corp., USA). Clones stably expressing human LPA1 were selected using hygromycin and identified as cells that show Ca-influx in response to LPA.
# Human LPA1 or LPA3 expressing CHO cells are seeded at 20,000-45,000 cells per well in a 96-well poly-D-lysine coated plate one or two days before the assay. Prior to the assay, the cells are washed once with PBS and then cultured in serum-free media overnight. On the day of the assay, a calcium indicator dye (Calcium 4, Molecular Devices) in assay buffer (HBSS with Ca^2+ and Mg^2+ and containing 20 mM Hepes and 0.3% fatty-acid free human serum albumin) is added to each well and incubation continued for 1 hour at 37° C. 10 μl of test compounds in 2.5% DMSO are added to the cells and incubation continued at room temperature for 30 minutes. Cells are the stimulated by the addition of 10 nM LPA and intracellular Ca^2+ measured using the FLEXSTATION® 3 (Molecular Devices). IC50s are determined using Graphpad prism analysis of drug titration curves.
# T1 sequence (Q92633 whole entry): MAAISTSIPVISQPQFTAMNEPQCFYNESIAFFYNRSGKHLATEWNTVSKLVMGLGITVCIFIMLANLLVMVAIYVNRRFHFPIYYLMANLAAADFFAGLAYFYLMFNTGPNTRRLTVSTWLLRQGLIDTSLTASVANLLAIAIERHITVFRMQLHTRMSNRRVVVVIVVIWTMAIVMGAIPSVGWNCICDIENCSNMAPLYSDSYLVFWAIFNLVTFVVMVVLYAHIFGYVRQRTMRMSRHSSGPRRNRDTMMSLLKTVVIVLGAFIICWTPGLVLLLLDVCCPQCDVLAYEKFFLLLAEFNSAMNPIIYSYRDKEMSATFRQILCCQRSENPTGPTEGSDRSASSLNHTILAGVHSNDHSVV
row,SMILES,IC50
1,"C[C@@H](OC(=O)Nc1ccccc1-c1ccc(-c2ccc(C3(C(=O)O)CC3)cc2)cc1)c1ccccc1 [Compound 1-2, 1-[2″-((R)-1-phenyl-ethoxycarbonylamino)-[1,1′;4′,1″]terphenyl-4-yl]-cyclopropanecarboxylic acid]",< 300 nM
2,"C[C@@H](OC(=O)Nc1cnccc1-c1ccc(-c2ccc(C3(C(=O)O)CC3)cc2)cc1)c1ccccc1 [Compound 1-3, 1-{4′-[3-((R)-1-phenyl-ethoxycarbonylamino)-pyridin-4-yl]-biphenyl-4-yl}-cyclopropanecarboxylic acid]",300 to 1000 nM
3,"C[C@@H](OC(=O)Nc1ncoc1-c1ccc(-c2ccc(C3(C(=O)O)CC3)cc2)cc1)c1ccccc1 [Compound 1-4, 1-{4′-[4-((R)-1-phenyl-ethoxycarbonylamino)-oxazol-5-yl]-biphenyl-4-yl}-cyclopropanecarboxylic acid]",< 300 nM
4,"O=C(O)C1(c2ccc(-c3ccc(-c4ncccc4C(O)CCCc4ccccc4)cc3)cc2)CC1 (centres unmarked) [Compound 1-5, 1-{4′-[3-(1-hydroxy-4-phenyl-butyl)-pyridin-2-yl]-biphenyl-4-yl}-cyclopropanecarboxylic acid]",< 300 nM
5,"O=C(O)C1(c2ccc(-c3ccc(-c4ccsc4C(O)CCCc4ccccc4)cc3)cc2)CC1 (centres unmarked) [Compound 1-6, 1-{4′-[2-(1-hydroxy-4-phenyl-butyl)-thiophen-3-yl]-biphenyl-4-yl}-cyclopropanecarboxylic acid]",< 300 nM
6,"O=C(O)C1(c2ccc(-c3ccc(-c4ccccc4C(O)CCCc4ccccc4)cc3)cc2)CC1 (centres unmarked) [Compound 1-7, 1-[2-(1-hydroxy-4-phenyl-butyl)-[1,1′;4′,1″]terphenyl-4″-yl]-cyclopropanecarboxylic acid]",< 300 nM
7,"O=C(O)CC1(c2ccc(-c3ccc(-c4ccncc4C(O)CCCc4ccccc4)cc3)cc2)CC1 (centres unmarked) [Compound 1-8, (1-{4′-[3-(1-hydroxy-4-phenyl-butyl)-pyridin-4-yl]-biphenyl-4-yl}-cyclopropyl)-acetic acid]",300 to 1000 nM
8,"O=C(O)C1(c2ccc(-c3ccc(-c4ccncc4C(O)CCCc4ccccc4)cc3)cc2)CC1 (centres unmarked) [Compound 1-9, 1-{4′-[3-(1-Hydroxy-4-phenyl-butyl)-pyridin-4-yl]-biphenyl-4-yl}-cyclopropanecarboxylic acid]",< 300 nM
9,"Cn1ncc(-c2ccc(-c3ccc(C4(CC(=O)O)CC4)cc3)cc2)c1C(O)CCCc1ccccc1 (centres unmarked) [Compound 1-10, (1-{4′-[5-(1-hydroxy-4-phenyl-butyl)-1-methyl-1H-pyrazol-4-yl]-biphenyl-4-yl}-cyclopropyl)-acetic acid]",< 300 nM
10,"Cn1ncc(-c2ccc(-c3ccc(C4(C(=O)O)CC4)cc3)cc2)c1C(O)CCCc1ccccc1 (centres unmarked) [Compound 1-11, 1-{4′-[5-(1-hydroxy-4-phenyl-butyl)-1-methyl-1H-pyrazol-4-yl]-biphenyl-4-yl}-cyclopropanecarboxylic acid]",< 300 nM
11,"O=C(O)CC1(c2ccc(-c3ccc(-c4ncccc4C(O)CCCc4ccccc4)cc3)cc2)CC1 (centres unmarked) [Compound 1-12, (1-{4′-[3-(1-hydroxy-4-phenyl-butyl)-pyridin-2-yl]-biphenyl-4-yl}-cyclopropyl)-acetic acid]",< 300 nM
12,"O=C(O)CC1(c2ccc(-c3ccc(-c4ccsc4C(O)CCCc4ccccc4)cc3)cc2)CC1 (centres unmarked) [Compound 1-13, (1-{4′-[2-(1-hydroxy-4-phenyl-butyl)-thiophen-3-yl]-biphenyl-4-yl}-cyclopropyl)-acetic acid]",< 300 nM
13,"O=C(O)CC1(c2ccc(-c3ccc(-c4cscc4C(O)CCCc4ccccc4)cc3)cc2)CC1 (centres unmarked) [Compound 1-14, (1-{4′-[4-(1-hydroxy-4-phenyl-butyl)-thiophen-3-yl]-biphenyl-4-yl}-cyclopropyl)-acetic acid]",< 300 nM
14,"O=C(O)C1(c2ccc(-c3ccc(-c4cscc4C(O)CCCc4ccccc4)cc3)cc2)CC1 (centres unmarked) [Compound 1-15, 1-{4′-[4-(1-hydroxy-4-phenyl-butyl)-thiophen-3-yl]-biphenyl-4-yl}-cyclopropanecarboxylic acid]",< 300 nM
15,"O=C(O)C1(c2ccc(-c3ccc(-c4ncc5ccccc5c4C(O)CCCc4ccccc4)cc3)cc2)CC1 (centres unmarked) [Compound 1-16, 1-{4′-[4-(1-hydroxy-4-phenyl-butyl)-isoquinolin-3-yl]-biphenyl-4-yl}-cyclopropanecarboxylic acid]",1000 to 10000 nM

# Second part, the compound after the results:
row,IC50,SMILES
1,< 300 nM,"O=C(O)C1(c2ccc(-c3ccc(-c4sccc4C(O)CCCc4ccccc4)cc3)cc2)CC1 (single isomer, unassigned) [Compound 1-26, 1-{4′-[3-(1-hydroxy-4-phenyl-butyl)-thiophen-2-yl]-biphenyl-4-yl}-cyclopropanecarboxylic acid]"
2,< 300 nM,"O=C(O)C1(c2ccc(-c3ccc(-c4sccc4C(O)CCCc4ccccc4)cc3)cc2)CC1 (single isomer, unassigned) [Compound 1-27, 1-{4′-[3-(1-hydroxy-4-phenyl-butyl)-thiophen-2-yl]-biphenyl-4-yl}-cyclopropanecarboxylic acid]"
3,< 300 nM,"O=C(O)C1(c2ccc(-c3ccc(-c4cnccc4C(O)CCCc4ccccc4)cc3)cc2)CC1 (centres unmarked) [Compound 1-17, 1-{4′-[4-(1-hydroxy-4-phenyl-butyl)-pyridin-3-yl]-biphenyl-4-yl}-cyclopropanecarboxylic acid]"
4,< 300 nM,"O=C(O)C1(c2ccc(-c3ccc(-c4sccc4C(O)CCCc4ccccc4)cc3)cc2)CC1 (centres unmarked) [Compound 1-18, 1-{4′-[3-(1-hydroxy-4-phenyl-butyl)-thiophen-2-yl]-biphenyl-4-yl}-cyclopropanecarboxylic acid]"
5,< 300 nM,"O=C(O)CC1(c2ccc(-c3ccc(-c4sccc4C(O)CCCc4ccccc4)cc3)cc2)CC1 (centres unmarked) [Compound 1-19, (1-{4′-[3-(1-hydroxy-4-phenyl-butyl)-thiophen-2-yl]-biphenyl-4-yl}-cyclopropyl)-acetic acid]"
6,< 300 nM,"Cn1ncc(-c2ccc(-c3ccc(C4(C(=O)O)CC4)cc3)cc2)c1Nc1cccc(-c2ccccc2)n1 [Compound 1-20, 1-{4′-[1-methyl-5-(6-phenyl-pyridin-2-ylamino)-1H-pyrazol-4-yl]-biphenyl-4-yl}-cyclopropanecarboxylic acid]"
7,< 300 nM,"CC(CCc1ccc(Cl)cc1)Nc1c(-c2ccc(-c3ccc(C4(C(=O)O)CC4)cc3)cc2)cnn1C (centres unmarked) [Compound 1-21, 1-(4′-{5-[3-(4-chloro-phenyl)-1-methyl-propylamino]-1-methyl-1H-pyrazol-4-yl}-biphenyl-4-yl)-cyclopropanecarboxylic acid]"
8,< 300 nM,"Cn1ncc(-c2ccc(-c3ccc(C4(C(=O)O)CC4)cc3)cc2)c1C(O)c1cn(Cc2ccccc2)nn1 (centres unmarked) [Compound 1-22, 1-(4′-{5-[(1-benzyl-1H-[1,2,3]triazol-4-yl)-hydroxy-methyl]-1-methyl-1H-pyrazol-4-yl}-biphenyl-4-yl)-cyclopropanecarboxylic acid]"
9,< 300 nM,"CCn1ncc(-c2ccc(-c3ccc(C4(C(=O)O)CC4)cc3)cc2)c1C(O)CCCc1ccccc1 (centres unmarked) [Compound 1-23, 1-{4′-[1-ethyl-5-(1-hydroxy-4-phenyl-butyl)-1H-pyrazol-4-yl]-biphenyl-4-yl}-cyclopropanecarboxylic acid]"
10,< 300 nM,"CCn1ncc(-c2ccc(-c3ccc(C4(CC(=O)O)CC4)cc3)cc2)c1C(O)CCCc1ccccc1 (centres unmarked) [Compound 1-24, (1-{4′-[1-ethyl-5-(1-hydroxy-4-phenyl-butyl)-1H-pyrazol-4-yl]-biphenyl-4-yl}-cyclopropyl)-acetic acid]"
11,1000 to 10000 nM,"Cn1ncc(-c2ccc(-c3ccc(C4(C(=O)O)CC4)cc3)cc2)c1NCc1cnc(-c2ccccc2)s1 [Compound 1-25, 1-(4′-{1-methyl-5-[(2-phenyl-thiazol-5-ylmethyl)-amino]-1H-pyrazol-4-yl}-biphenyl-4-yl)-cyclopropanecarboxylic acid]"

# Reference: US9272990B2, “Lysophosphatidic acid receptor antagonists and their use in the treatment fibrosis” (AMIRA PHARMACEUTICALS, INC., priority 2010, dated 2016)
